Results published in ChEMBL document CHEMBL1145809, “Novel (2E,4E,6Z)-7-(2-alkoxy-3,5-dialkylbenzene)-3-methylocta-2,4,6-trienoic acid retinoid X receptor modulators are active in models of type 2 diabetes” (J Med Chem, 2003).
Activity calls are given as the source filed them. The calls are words filed in the database; no cut-off is given here.

What was measured:
[1] = target: T1, Retinoic acid receptor gamma (Homo sapiens, UniProt P13631); test: Binding affinity against Retinoic acid receptor gamma was determined in vitro by using [3H]ATRA as radioligand
T1 sequence (P13631 whole entry): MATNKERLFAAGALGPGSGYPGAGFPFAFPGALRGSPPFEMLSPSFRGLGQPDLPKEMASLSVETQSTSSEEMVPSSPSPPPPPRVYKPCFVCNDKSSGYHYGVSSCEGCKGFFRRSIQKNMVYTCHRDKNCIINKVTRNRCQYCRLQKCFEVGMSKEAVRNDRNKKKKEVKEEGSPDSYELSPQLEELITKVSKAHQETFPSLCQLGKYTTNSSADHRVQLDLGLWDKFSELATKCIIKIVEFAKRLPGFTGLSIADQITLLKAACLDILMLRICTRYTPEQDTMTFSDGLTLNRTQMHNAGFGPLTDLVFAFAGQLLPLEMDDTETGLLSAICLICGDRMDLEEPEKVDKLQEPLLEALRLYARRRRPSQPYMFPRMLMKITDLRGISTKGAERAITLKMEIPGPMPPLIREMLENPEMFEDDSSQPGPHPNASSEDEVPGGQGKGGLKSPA

[2] = RXR:RAR synergy expressed as fold induction
[3] = target: T2, Retinoic acid receptor RXR-alpha (Homo sapiens, UniProt P19793); test: Inhibitory activity against Retinoic acid receptor RXR-alpha antagonist was determined in vitro; format: functional
T2 sequence (P19793 whole entry): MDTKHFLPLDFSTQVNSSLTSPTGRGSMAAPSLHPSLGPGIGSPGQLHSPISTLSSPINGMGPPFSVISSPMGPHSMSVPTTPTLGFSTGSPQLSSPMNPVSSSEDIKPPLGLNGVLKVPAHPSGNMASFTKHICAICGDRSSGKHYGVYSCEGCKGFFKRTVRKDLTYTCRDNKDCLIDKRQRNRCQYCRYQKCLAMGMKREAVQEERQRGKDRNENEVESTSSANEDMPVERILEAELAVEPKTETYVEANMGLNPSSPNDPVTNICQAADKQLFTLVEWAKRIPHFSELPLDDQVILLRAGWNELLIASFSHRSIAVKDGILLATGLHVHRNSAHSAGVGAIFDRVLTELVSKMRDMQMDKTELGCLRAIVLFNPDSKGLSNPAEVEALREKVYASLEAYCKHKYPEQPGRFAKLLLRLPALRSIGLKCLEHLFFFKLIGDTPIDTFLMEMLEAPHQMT

RXR alpha/PPAR gamma = RXR alpha/PPAR gamma (Homo sapiens, UniProt P19793)
Chain of RXR alpha/PPAR gamma (P37231 whole entry, one chain of several): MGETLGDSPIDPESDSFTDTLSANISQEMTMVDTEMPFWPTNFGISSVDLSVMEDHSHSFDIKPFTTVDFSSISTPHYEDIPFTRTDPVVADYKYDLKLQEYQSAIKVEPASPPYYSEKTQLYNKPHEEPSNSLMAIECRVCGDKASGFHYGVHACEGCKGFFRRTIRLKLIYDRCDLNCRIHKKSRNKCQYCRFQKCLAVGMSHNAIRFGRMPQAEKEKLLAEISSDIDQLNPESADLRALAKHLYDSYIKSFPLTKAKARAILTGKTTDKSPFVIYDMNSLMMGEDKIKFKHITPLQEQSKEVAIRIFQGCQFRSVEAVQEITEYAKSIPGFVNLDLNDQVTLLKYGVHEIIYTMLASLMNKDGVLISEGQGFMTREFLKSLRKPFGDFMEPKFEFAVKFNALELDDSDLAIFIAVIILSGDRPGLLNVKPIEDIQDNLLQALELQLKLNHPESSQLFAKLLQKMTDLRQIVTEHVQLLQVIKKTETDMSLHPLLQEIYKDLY
Description: Transcriptional activity against RXR:PPAR-gamma synergy was determined in vitro

[4] = target: T2, Retinoic acid receptor RXR-alpha
Description: Binding affinity against Retinoic acid receptor RXR-alpha was determined in vitro by using [3H]9-cis-RA as radioligand

[5] = target: T2, Retinoic acid receptor RXR-alpha; remark: listed apart in the source
Description: Inhibition of Retinoic acid receptor RXR-alpha agonist activity in vitro

[6] = Transcriptional activation in CV-1 cells expressing RXR and LXR at 1 uM; format: functional
Mus musculus [7] = test: In vivo hypoglycemic activity, as reduced plasma glucose in db/db mouse type II diabetes model; format: functional
Mus musculus [8] = test: In vivo hypoglycemic activity compared to BRL-46953 as reduced plasma glucose in db/db mouse type II diabetes model; format: functional
Rattus norvegicus [9] = species: Rattus norvegicus; test: Effect on T4 levels in male Dawley rats at 24 hr r; format: functional
Rattus norvegicus [10] = species: Rattus norvegicus; test: Effect on triglyceride level in male Dawley rats at 24 hr r; format: functional
[11] = target: T3, Retinoic acid receptor RXR-alpha (Homo sapiens) (UniProt P19793)
T3 sequence (whole entry): T2 sequence (P19793 whole entry)

SMILES | Ki [1] [nM] | Synergy [2] [fold] | IC50 [3] [nM] | EC50 (RXR alpha/PPAR gamma) [nM] | Ki [4] [nM] | EC50 [5] [nM] | Activation [6] [fold] | Activity (Mus musculus [7]) [mg/dL] | Normalization (Mus musculus [8]) [%] | Activity (Rattus norvegicus [9]) [ng/mL] | Activity (Rattus norvegicus [10]) [mg/dL] | NB [11]
CCCOc1c(\C(C)=C/C=C/C(C)=C/C(=O)O)cc(C(C)C)cc1C(C)C | 10000 | 2 | 4 | 5 | 3 | – | – | – | – | – | – | –
C/C(=C/C=C/C(C)=C/C(=O)O)c1cc(C(C)(C)C)cc(C(C)(C)C)c1OCC(F)(F)F | 4030 | 1 | 8 | 2 | – | – | – | – | – | – | – | –
C/C(=C/C=C/C(C)=C/C(=O)O)c1cc(C(C)C)cc(C(C)C)c1OCC(F)(F)F | 1860 | 2 | 6 | 3 | 3 | – | – | – | – | – | – | –
CCC(C)(C)c1cc(\C(C)=C/C=C/C(C)=C/C(=O)O)c(OCC(F)F)c(C(C)(C)CC)c1 | 10000 | 1 | 16 | 11 | – | – | – | – | – | – | – | –
COc1c(\C(C)=C/C=C/C(C)=C/C(=O)O)cc(C(C)(C)C)cc1C(C)(C)C | 10000 | 3 | – | 7 | 1 | 36 | – | – | – | – | – | –
CCCCOc1c(\C(C)=C/C=C/C(C)=C/C(=O)O)cc(C(C)C)cc1C(C)C | 10000 | 1 | 4 | 12 | 4 | – | 0.6 | 502 | 33 | 72 | 63 | –
CN(CCOc1ccc(CC2SC(=O)NC2=O)cc1)c1ccccn1.O=C(O)/C=C\C(=O)O (stereo not drawn) [ROSIGLITAZONE MALEATE] | – | – | – | – | – | – | – | 412 | 100 | 70 | 78 | inactive
CCC(C)(C)c1cc(\C(C)=C/C=C/C(C)=C/C(=O)O)c(OC)c(C(C)(C)CC)c1 | 10000 | 2 | – | 6 | 2 | 506 | – | – | – | – | – | –
COc1c(\C(C)=C/C=C/C(C)=C/C(=O)O)cc(C(C)C)cc1C(C)C | 10000 | 10 | – | 8 | 1 | 2 | – | – | – | – | – | –
Cc1cc2c(cc1C1(c3ccc(C(=O)O)cn3)CC1)C(C)(C)CCC2(C)C | – | 7 | – | – | – | – | 6.3 | 400 | 101 | 37 | 152 | –
C/C(=C/C=C/C(C)=C/C(=O)O)c1cc(C(C)(C)C)cc(C(C)(C)C)c1OCC(F)F | 10000 | 2 | – | – | – | – | 1.2 | 409 | 101 | 70 | 75 | –
C/C(=C/C=C/C(C)=C/C(=O)O)c1cc(C(C)C)cc(C(C)C)c1OCCF | 10000 | 4 | 4 | 4 | 1 | 7 | – | – | – | – | – | –
CCCOc1c(\C(C)=C/C=C/C(C)=C/C(=O)O)cc(C(C)(C)CC)cc1C(C)(C)CC | 10000 | 1 | 13 | 19 | 23 | – | – | – | – | – | – | –
CCCOc1c(\C(C)=C/C=C/C(C)=C/C(=O)O)cc(C(C)(C)C)cc1C(C)(C)C | 10000 | 1 | 43 | 154 | 14 | – | – | – | – | – | – | –
CCOc1c(\C(C)=C/C=C/C(C)=C/C(=O)O)cc(C(C)(C)CC)cc1C(C)(C)CC | 2500 | 2 | 17 | 9 | 2 | – | – | – | – | – | – | –
C/C(=C/C=C/C(C)=C/C(=O)O)c1cc(C(C)C)cc(C(C)C)c1OCC(F)F | 10000 | 3 | 1 | 10 | 2 | – | – | – | – | – | – | –
CCOc1c(\C(C)=C/C=C/C(C)=C/C(=O)O)cc(C(C)C)cc1C(C)C | 10000 | 5 | – | 1 | 2 | 2 | – | – | – | – | – | –
CCOc1c(\C(C)=C/C=C/C(C)=C/C(=O)O)cc(C(C)(C)C)cc1C(C)(C)C | 10000 | 3 | 8 | 2 | 11 | 18 | 2.04 | 412 | 100 | 25 | 92 | –
